From patent publication US20160160189A1, “Truncated Constructs of RIPK3 and Related Uses” (ST. JUDE CHILDREN'S RESEARCH HOSPITAL, priority 2013, published 2016)
Peptide text beside a SMILES is read from it. * marks the point of attachment. Cbz = O=C(OCc1ccccc1)*; CH2F = FC*

What was measured:
RIPK3 complexes = experiment: DSS crosslinking of necrosome complexes resolved by western blotting; format: cell-based, murine; conditions: 30 nM AP1; zVAD 50 μM, Nec1 30 μM
Procedure: A confluent monolayer of the indicated cells was incubated with the appropriate treatment for 30 minutes at 37 degrees. Cells were lysed in a modified, Tris-free NP40 buffer (30 mM HEPES pH 7.4, 150 mM NaCl, and 1% NP40) without protease inhibitors. Protein lysate was quantified according to standard BCA assay (Pierce) and fifty micrograms of each sample was treated with 0.1 mM DSS crosslinking agent (Thermo Scientific, #21658) for 30 minutes at room temperature; the reaction was quenched by the addition of Tris-HCl pH 7.2 to a final concentration of 50 mM for 15 minutes. Crosslinked samples were analyzed by Western blot as described above, using the anti-2A primary antibody for detection.

[1] = tested on: NIH-3T3 cells stably expressing RIPK3-1xFv; experiment: TNF-induced necroptosis, IncuCyte imaging; format: cell-based, murine; conditions: recombinant TNF with zVAD; Nec1 30 μM, TNFR1-Fc 200 ng/ml
Procedure: Expression of RIPK3-1xFv sensitized these cells to necroptosis induced by the combination of TNF and a caspase inhibitor (zVAD) in a manner analogous to that observed in Jax cells, a murine fibroblast line that expresses endogenous RIPK3. See, FIG. 13C. […]
(§1) Resulting images were analyzed using the software package supplied with the IncuCyte imager, which allows precise analysis of the number of Sytox Green or Yoyo-3 positive cells present in each image. For each experiment, a minimum of three separate wells were treated with each experimental condition, and a minimum of 4 image fields were assessed per well. Percent cell death was calculated by treating a minimum of three distinct wells in each experiment with 100 nM of the cell permeable fluorescent dye Syto Green (S7559), which allows quantification of the total number of cells present in each field. […]

[2] = tested on: NIH-3T3 cells stably expressing DD-RIPK3; experiment: Cell death of DD-RIPK3 cells, IncuCyte bioimager; format: cell-based, murine; conditions: 1 μM Shield drug
Source text: Chimeric proteins composed of RIPK3 fused to the destabilization domain (DD)(31a) were created via recombinant PCR, to produce a fragment composed of an N-terminal FLAG tag followed by the destabilization domain, then full-length murine RIPK3 or RIPK3^K51A. These constructs were cloned into the pRRL lentiviral vector downstream of an MND promoter, and upstream of a T2A-GFP-T2A-Puromycin resistance cassette. Thus, cells transduced with these vectors produce FLAG-DD-RIPK3, GFP, and the puromycin resistance marker as separate proteins from a single mRNA, and both DD-RIPK3 and GFP carry a C terminal 2A epitope. These constructs were expressed in NIH-3T3 cells via standard helper12 dependent lentiviral transduction, and resulting cells were selected in 2 μg/ml puromycin. […]
as §1

[3] = tested on: NIH-3T3 cells expressing RIPK3-2xFv; experiment: AP1-induced RIPK3 oligomerization cell death, IncuCyte imaging; format: cell-based, murine; conditions: AP1; zVAD 50 μM, Nec1 30 μM
Source text: (§2) Consequently, two Fv domains were attached to the C-terminus of RIPK3, creating a RIPK3-2xFv construct, with the goal of promoting AP1-induced crosslinking and oligomerization independent of the RHIM domain. See, FIG. 12A. […] Compare, FIGS. 16A and 15A, respectively. […] Cells expressing this RHIM-deficient RIPK3^ΔC-2xFv construct were nonresponsive to TNF+zVAD, previously reported to be dependent on RIPK1 RHIM/RIPK3 RHIM interactions. See, FIG. 13G. […] See, FIG. 16C and FIG. 16D, respectively. […] See, FIG. 16E. […] See, FIG. 16F.
(§3) Cell death assays were carried out using a 2-color IncuCyte Zoom in-incubator imaging system (Essen Biosciences.) Briefly, this system allows fully automated imaging of cells at set intervals in phase contrast as well as both red and green fluorescent channels. Cell death assays were carried out by treating cells with death-inducing compounds in 24 well tissue culture vessels (100,000 cells/well), in the presence of 100 nM of the cell-impermeable DNA binding fluorescent dyes Sytox Green (Life Technologies 57020) or Yoyo-3 (Y3606), which are excluded from healthy cells but rapidly enter dying cells upon membrane permeabilization, in a manner analogous to propidium iodide.
(§4) Resulting images were analyzed using the software package supplied with the IncuCyte imager, which allows precise analysis of the number of Sytox Green or Yoyo-3 positive cells present in each image. For each experiment, a minimum of three separate wells were treated with each experimental condition, and a minimum of 4 image fields were assessed per well. Percent cell death was calculated by treating a minimum of three distinct wells in each experiment with 100 nM of the cell permeable fluorescent dye Syto Green (S7559), which allows quantification of the total number of cells present in each field. Dead cell events acquired via Sytox Green or Yoyo-3 staining were divided by this total cell number to yield percent cell death at each timepoint. Error bars represent standard deviation from the mean of a minimum of three independent wells. Each result depicted is representative of at least 4 distinct experiments, each of which contained at least 3 technical replicates.

[4] = tested on: NIH-3T3 cells expressing RIPK3^ΔC-2xFv; experiment: as above; format: cell-based, murine; conditions: zVAD 50 μM, Nec1 30 μM
Source text: as §2, §3, §4

[5] = tested on: EμMyc+p53^ΔPP/wt tumor-bearing animals; format: in vivo, mice; conditions: 200 μg zVAD-fmk with 10 μg anti-CD95, intravenously once/day for 5 days
Procedure: EμMyc+p53^ΔPP/wt tumor-bearing animals were injected intravenously once/day for 5 days starting at P35 with 10 μg of the antagonist anti-CD95 Jot antibody and 200 μg of zVAD-fmk or vehicle control. Tumor size was monitored by ultrasound of the thymus, where volume was calculated from 3D reconstructions of the scanned tumors.
In a pilot experiment, mice with detectable tumors at 5 weeks (determined by ultrasound, and characteristic of this lymphoma) were given a short course (5 days) of agonistic anti-CD95 (Jo2) and zVAD-fmk (FIG. 11). […] Controls using zVAD-fmk alone are also included.

| Compound | effect of inhibitor on RIPK3 complexes following RIPK3-1xFv dimerization (RIPK3 complexes) | effect on TNF-induced necroptosis [1] | effect of Nec1 on cell death after RIPK1 siRNA-mediated knockdown ([2]; 30 μM Nec1, RIPK1 siRNA) | effect on cell death triggered by RIPK3 accumulation ([2]; no exogenous TNF, TNFR-Fc 200 ng/ml, Nec1 30 μM) | effect of inhibitor on magnitude or kinetics of cell death [3] | effect of inhibitor on magnitude or kinetics of cell death [4] | protection from the lethal effects of anti-CD95 in vivo [5] |
| --- | --- | --- | --- | --- | --- | --- | --- |
| CN1C(=O)C(Cc2c[nH]c3ccccc23)NC1=S (stereo not shown) [necrostatin-1, Necrostatin-1] | diminished the appearance of these complexes | blocks | eliminated | decreased cell death | did not alter magnitude or kinetics of cell death | did not alter magnitude or kinetics of cell death | – |
| COC(=O)C[C@H](NC(=O)[C@H](C)NC(=O)[C@@H](NC(=O)OCc1ccccc1)C(C)C)C(=O)CF [zVAD] (Cbz-Val-Ala-Asp(OMe)-CH2F) | increased shift of RIPK3 into higher molecular weight complexes | – | – | – | did not alter magnitude or kinetics of cell death | did not alter magnitude or kinetics of cell death | completely protected |
